Columns and labels:
[1] = Plasma concentration of test compound in the receptor occupancy study; format: in vivo, Sprague Dawley rats; conditions: rat
Experimental: Twenty male Sprague Dawley rats (140-150 gms, Envigo) were maintained under controlled laboratory conditions on a 12 hr light cycle with ad lib access to food and water. On the morning of the experiment, rats were orally dosed with vehicle (1% (w/v) hydroxyethylcellulose, 0.25% (w/v) polysorbate 80, 0.05% (v/v) antifoam 1510-US in purified water) or appropriate doses of test compound (5 mL/kg, n=4 rats/group) using the same vehicle. Following a pre-determined survival time, plasma and adrenals were collected and frozen at −80° C. until analyzed. Frozen 20 μm sections of an adrenal from each animal were collected onto gelatin-coated slides and stored at −80° C. Autoradiography to detect AT2R occupancy (RO) was conducted under cold conditions using methods modified from F. M. J. Heemskerk, et al, Brain Research 677 (1995) 29-38. Total binding was defined by 0.3 nM ^125I-CGP42112 (selective AT2R agonist, Perkin Elmer, Inc) with the addition of 10 μM unlabeled AngII used to define non-specific binding. Following exposure to a phosphoimager plate (BAS TR2025, GE Healthcare), the bound radioactivity is calculated with use of MCID software (Imaging Research, Inc) and calibrated ^125I standards (American Radiolabeled Chemicals, Inc). The specific ligand binding for each animal is calculated by subtracting the non-specific binding from the total bound.

AT2R [2] = target: T1, AT2R (Rattus norvegicus (Rat), UniProt P35351); assay: Inhibition of C21-induced increase in dermal blood flow (laser Doppler imaging); format: in vivo, Sprague Dawley rats
T1 sequence (P35351 whole entry): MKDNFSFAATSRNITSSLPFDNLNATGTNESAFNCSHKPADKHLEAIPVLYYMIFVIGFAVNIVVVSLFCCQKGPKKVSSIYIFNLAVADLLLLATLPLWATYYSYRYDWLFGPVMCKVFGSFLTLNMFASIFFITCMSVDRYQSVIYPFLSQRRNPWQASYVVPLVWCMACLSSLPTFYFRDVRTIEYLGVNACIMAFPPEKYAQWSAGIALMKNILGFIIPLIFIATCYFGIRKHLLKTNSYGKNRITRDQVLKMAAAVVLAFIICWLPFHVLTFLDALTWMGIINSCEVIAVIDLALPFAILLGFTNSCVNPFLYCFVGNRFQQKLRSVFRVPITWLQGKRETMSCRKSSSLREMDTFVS

AT2R [3] = target: T1, AT2R; assay: AT2R ex vivo autoradiography receptor occupancy in rat adrenal sections after oral dosing; design: species or system Sprague Dawley rats; conditions: for IC50 / IC80: plasma concentration plotted vs % receptor occupancy, rat; for receptor occupancy at 0.3 mg/kg: oral dose 0.3 mg/kg; for receptor occupancy at 1 mg/kg: oral dose 1 mg/kg; for receptor occupancy at 3 mg/kg: oral dose 3 mg/kg; for receptor occupancy at 10 mg/kg: oral dose 10 mg/kg; for ex vivo IC50 (TER) / ex vivo IC80 (TER): rat receptor occupancy
Experimental: The ability for a compound to engage its target may be measured by determining compound's receptor occupancy. An ex vivo autoradiography assay was conducted as described herein.
Twenty male Sprague Dawley rats (140-150 gms, Envigo) were maintained under controlled laboratory conditions on a 12 hr light cycle with ad lib access to food and water. […] Following a pre-determined survival time, plasma and adrenals were collected and frozen at −80° C. until analyzed. Frozen 20 μm sections of an adrenal from each animal were collected onto gelatin-coated slides and stored at −80° C. […] The specific ligand binding for each animal is calculated by subtracting the non-specific binding from the total bound.

[plasma, free, nM] ([1]; oral dose 1 mg/kg) [nM] | IC50 (AT2R [3]) [pM] | IC80 (AT2R [3]) [pM] | receptor occupancy at 0.3 mg/kg (AT2R [3]; rat adrenal, read-out: % RO) [%] | receptor occupancy at 1 mg/kg (AT2R [3]; rat adrenal, read-out: % RO) [%] | receptor occupancy at 3 mg/kg (AT2R [3]; rat adrenal, read-out: % RO) [%] | receptor occupancy at 10 mg/kg (AT2R [3]; rat adrenal, read-out: % RO) [%] | ex vivo IC50 (TER) (AT2R [3]) | ex vivo IC80 (TER) (AT2R [3]) | Compound | other results
1.74 | 821 | 3340 | 37.8 | 61.9 | 83.5 | 90.5 | 0.375 | 1.525 | O=C(N1CCC(CC(=O)N(c2ccccc2)c2ccccc2)(C(=O)O)CC1)N1CCc2ccccc21 [Example 3, 1-(indoline-1-carbonyl)-4-[2-oxo-2-(N-phenylanilino)ethyl]piperidine-4-carboxylic acid] | [plasma, free, nM] ([1]; oral dose 0.3 mg/kg): 0.482 nM; [plasma, free, nM] ([1]; oral dose 3 mg/kg): 5.99 nM; [plasma, free, nM] ([1]; oral dose 10 mg/kg): 15.8 nM; mode of action at AT2R (inhibition of C21-induced dermal blood flow) (AT2R [2]; AT2R agonist C21 intradermal): acting as a antagonist; inhibition at 0.3 mg/kg (AT2R [2]; dose 0.3 mg/kg, C21-induced increase in dermal blood flow): 49.6%; inhibition at 3 mg/kg (AT2R [2]; dose 3 mg/kg, C21-induced increase in dermal blood flow): 62.9%; inhibition at 10 mg/kg (AT2R [2]; C21-induced increase in dermal blood flow): 74.3%; inhibition at 10 mg/kg (AT2R [2]; second, unlabelled column under % Inhibition): 95.6%
2.57 | 114 | 449 | 79.3 | 93.2 | 90.9 | 93 | 0.186 | 0.731 | CN(C(=O)N1CCC(CC(=O)N(c2ccccc2)C(C2CC2)C2CC2)(C(=O)O)CC1)c1ccc(F)cc1 [Example 18, 4-[2-[N-(dicyclopropylmethyl)anilino]-2-oxo-ethyl]-1-[(4-fluorophenyl)-methyl-carbamoyl]piperidine-4-carboxylic acid] | [plasma, free, nM] ([1]; oral dose 0.01 mg/kg): 0.0298 nM; [plasma, free, nM] ([1]; oral dose 0.03 mg/kg): 0.224 nM; [plasma, free, nM] ([1]; oral dose 0.1 mg/kg): 0.476 nM; receptor occupancy at 0.01 mg/kg (AT2R [3]; rat adrenal, oral dose 0.01 mg/kg, read-out: % RO): 16.3%; receptor occupancy at 0.03 mg/kg (AT2R [3]; rat adrenal, oral dose 0.03 mg/kg, read-out: % RO): 65%; receptor occupancy at 0.1 mg/kg (AT2R [3]; rat adrenal, oral dose 0.1 mg/kg, read-out: % RO): 76.3%
